Assay results published in patent US20140107109A1, “AMINO-DIHYDROTHIAZINE AND AMINO-DIOXIDO DIHYDROTHIAZINE COMPOUNDS AS BETA-SECRETASE ANTAGONISTS AND METHODS OF USE” (Amgen Inc., priority 2012, published 2014).
Read-outs that look alike come from different tables or passages of the source.

Key:
[1] = target: T1, Cathepsin D (Cat D) (Homo sapiens, UniProt P07339); test: In vitro enzymatic Cathepsin D (Cat D) FRET assay; assay type: biochemical; settings: read-out: CatD IC50
T1 construct: Recombinant Cat D was expressed in CHO cells; made in house; host or cells: CHO cells
Outline: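 Recombinant Cat D expressed in CHO cells, used at 9 nM and pre-incubated one hour with serially diluted inhibitor in DMSO. Peptide substrate carries a fluorophore and quencher flanking the cleavage site; reaction stopped with Tris buffer raising pH to neutrality, then fluorescence read.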

[2] = tested on: Aβ40 in conditioned medium of cells stably expressing Amyloid Precursor Protein (APP); test: In vitro BACE cell-based assay (HEK cell assay), Aβ40 sandwich ELISA; settings: Homo sapiens, HEK293
Outline: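 APP-stably expressing cells (40K/well, grown 24 h in DMEM/10% FBS) were treated 24 h with compounds in 10-point dose response starting at 100 μM or 10 μM, 0.1% DMSO final. Secreted Aβ40 was measured by sandwich ELISA (pAb40 capture, biotinylated 6E10 detection, europium time-resolved fluorescence); IC50 from percent inhibition.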

[3] = target: Beta Secretase enzyme (BACE1) (Homo sapiens, UniProt P56817); test: In vitro enzymatic BACE FRET assay; assay type: biochemical; settings: read-out: BACE1 FRET assay IC50
Outline: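 BACE1 cleavage of a 50 nM fluorophore/quencher peptide FRET substrate ran for one hour in 0.05 M acetate pH 4.2, 10% DMSO, 100 uM genapol. Tris buffer raised pH to neutrality to stop the reaction before fluorescence was read (excitation 488 nm, […]).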

T1 sequence (P07339 65-412, species assumed): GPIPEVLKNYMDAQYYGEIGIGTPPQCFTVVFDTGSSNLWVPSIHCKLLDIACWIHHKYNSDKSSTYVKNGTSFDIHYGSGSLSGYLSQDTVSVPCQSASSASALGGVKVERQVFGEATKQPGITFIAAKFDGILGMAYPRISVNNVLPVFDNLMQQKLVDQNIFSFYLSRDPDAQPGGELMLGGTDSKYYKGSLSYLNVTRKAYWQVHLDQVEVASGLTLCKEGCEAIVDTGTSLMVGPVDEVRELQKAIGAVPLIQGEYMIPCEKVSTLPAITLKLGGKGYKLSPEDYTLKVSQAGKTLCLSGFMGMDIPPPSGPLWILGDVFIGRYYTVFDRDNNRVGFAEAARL
Chain of Beta Secretase enzyme (BACE1) (P56817 46-501): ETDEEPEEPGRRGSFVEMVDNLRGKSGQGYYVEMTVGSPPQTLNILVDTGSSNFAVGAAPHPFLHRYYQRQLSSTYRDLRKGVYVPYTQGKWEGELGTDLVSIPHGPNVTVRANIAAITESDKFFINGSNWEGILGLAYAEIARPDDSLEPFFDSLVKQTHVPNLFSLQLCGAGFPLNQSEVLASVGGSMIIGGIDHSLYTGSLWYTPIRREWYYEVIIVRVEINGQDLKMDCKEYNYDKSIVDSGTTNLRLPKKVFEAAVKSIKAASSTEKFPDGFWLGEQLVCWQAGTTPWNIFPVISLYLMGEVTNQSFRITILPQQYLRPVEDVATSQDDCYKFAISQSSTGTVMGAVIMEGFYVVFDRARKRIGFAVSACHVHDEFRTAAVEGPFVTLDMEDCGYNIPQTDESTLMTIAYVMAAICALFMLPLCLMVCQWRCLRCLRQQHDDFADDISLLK

SMILES | IC50 [1] [nM] | IC50 [3] [nM] | IC50 ([3]; average IC50, enzyme assay) [nM] | further results
COc1cnc2c(Nc3ccc(F)c(C4(CF)CS(=O)(=O)C(C)(C)C(N)=N4)c3)nccc2c1 (stereo not drawn) [Example 61, N-(3-(5-amino-3-(fluoromethyl)-6,6-dimethyl-1,1-dioxido-3,6-dihydro-2H-1,4-thiazin-3-yl)-4-fluorophenyl)-3-methoxy-1,7-naphthyridin-8-amine] | > 400000 | 6.5 | – | IC50 ([2]; Aβ40, 24 h incubation): 31.7 nM
COc1cnc(C(=O)Nc2ccc(F)c(C3(CF)CS(=O)(=O)C(C)(C)C(N)=N3)c2)cn1 (stereo not drawn) [Example 31, N-(3-(-5-amino-3-(fluoromethyl)-6,6-dimethyl-1,1-dioxido-3,6-dihydro-2H-1,4-thiazin-3-yl)-4-fluorophenyl)-5-methoxy-2-pyrazinecarboxamide] | > 400000 | 3.8 | – | IC50 ([2]; Aβ40, 24 h incubation): 27.9 nM
CC1(C)C(N)=N[C@](C)(c2cc(NC(=O)c3ccc(C#N)cn3)ccc2F)CS1(=O)=O [Example 23, N-(3-((3R)-5-amino-3,6,6-trimethyl-1,1-dioxido-3,6-dihydro-2H-1,4-thiazin-3-yl)-4-fluorophenyl)-5-cyano-2-pyridinecarboxamide] | 617000 | 2.7 | – | IC50 ([2]; Aβ40, 24 h incubation): 2.7 nM
Cc1cc(Cl)cnc1C(=O)Nc1ccc(F)c([C@]2(CF)CS(=O)(=O)C3(CC3)C(N)=N2)c1 [Example 216, N-(3-((6S)-8-amino-6-(fluoromethyl)-4,4-dioxido-4-thia-7-azaspiro[2.5]oct-7-en-6-yl)-4-fluorophenyl)-5-chloro-3-methyl-2-pyridinecarboxamide] | 132000 | – | – | IC50 ([2]; average IC50, HEK cells): 4.4 nM; IC50 ([3]; average IC50): 0.54 nM
COc1cnc2c(Nc3ccc(F)c([C@]4(C)CS(=O)(=O)C(C)(C)C(N)=N4)c3)nccc2n1 [Example 47, N-(3-((3R)-5-amino-3,6,6-trimethyl-1,1-dioxido-3,6-dihydro-2H-1,4-thiazin-3-yl)-4-fluorophenyl)-2-methoxypyrido[3,4-b]pyrazin-5-amine] | > 400000 | 2.9 | – | IC50 ([2]; Aβ40, 24 h incubation): 5.6 nM
CC1(C)C(N)=N[C@](C)(c2cc(Nc3nccc4cc(C#N)cnc34)cnc2F)CS1(=O)=O [Example 385, 8-((5-((3R)-5-amino-3,6,6-trimethyl-1,1-dioxido-3,6-dihydro-2H-1,4-thiazin-3-yl)-6-fluoro-3-pyridinyl)amino)-1,7-naphthyridine-3-carbonitrile] | 67600 | 2.62 | – | IC50 [2]: 3.7 nM
CC1(C)C(N)=N[C@](C)(c2cc(Nc3nccc4nc(OCC#N)cnc34)ccc2F)CS1(=O)=O [Example 443, ((5-((3-((3R)-5-amino-3,6,6-trimethyl-1,1-dioxido-3,6-dihydro-2H-1,4-thiazin-3-yl)-4-fluorophenyl)amino)pyrido[3,4-b]pyrazin-2-yl)oxy)acetonitrile] | 346000 | – | 2.87 | IC50 ([2]; average IC50, cell assay): 4 nM
CC1(C)C(N)=N[C@](C)(c2cc(Oc3ncccc3C#N)ccc2F)CS1(=O)=O [Example 306, 2-(3-((3R)-5-amino-3,6,6-trimethyl-1,1-dioxido-3,6-dihydro-2H-1,4-thiazin-3-yl)-4-fluorophenoxy)-3-pyridinecarbonitrile] | 218000 | – | 256 | IC50 ([2]; average IC50, HEK cell assay): 241 nM
C[C@]1(F)C(N)=N[C@](C)(c2cc(Nc3ncc(F)c4cc(Cl)cnc34)ccc2F)CS1(=O)=O [Example 178, (3R,6R)-5-Amino-3-(5-((3-chloro-5-fluoro-1,7-naphthyridin-8-yl)amino)-2-fluorophenyl)-6-fluoro-3,6-dimethyl-3,6-dihydro-2H-1,4-thiazine 1,1-dioxide] | 32100 | – | – | IC50 ([2]; average IC50, HEK cells): 379 nM; IC50 ([3]; average IC50): 0.38 nM
COc1cnc2c(Nc3ccc(F)c([C@@]4(C)N=C(N)C5(CC5)S(=O)(=O)[C@H]4F)c3)nccc2n1 [Example 208, N-(3-((5R,6R)-8-amino-5-fluoro-6-methyl-4,4-dioxido-4-thia-7-azaspiro[2.5]oct-7-en-6-yl)-4-fluorophenyl)-2-methoxypyrido[3,4-b]pyrazin-5-amine] | 696000 | – | – | IC50 ([2]; average IC50, HEK cells): 10.7 nM; IC50 ([3]; average IC50): < 2 nM
C[C@]1(F)C(N)=N[C@](C)(c2cc(NC(=O)c3ncc(Cl)cc3F)ccc2F)CS1(=O)=O [Example 320, N-(3-((3R,6R)-5-amino-6-fluoro-3,6-dimethyl-1,1-dioxido-3,6-dihydro-2H-1,4-thiazin-3-yl)-4-fluorophenyl)-5-chloro-3-fluoro-2-pyridinecarboxamide] | > 400000 | – | 0.8 | IC50 ([2]; average IC50, HEK cell assay): 78.9 nM
CCc1cc(Cl)cnc1C(=O)Nc1ccc(F)c([C@]2(C)CS(=O)(=O)C(C)(C)C(N)=N2)c1 [Example 196, (R)—N-(3-(5-amino-3,6,6-trimethyl-1,1-dioxido-3,6-dihydro-2H-1,4-thiazin-3-yl)-4-fluorophenyl)-5-chloro-3-ethylpicolinamide] | 200000 | – | 1.81 | IC50 ([2]; average IC50, HEK cell assay): 5.4 nM

Second part, led by results:

IC50 [1] [nM] | IC50 [3] [nM] | IC50 ([3]; average IC50, enzyme assay) [nM] | SMILES | further results
27100 | 0.56 | – | CC1(C)C(N)=N[C@](C)(c2cc(Nc3ncc(F)c4cc(Cl)cnc34)ccc2F)CS1(=O)=O [Example 49, N-(3-((3R)-5-amino-3,6,6-trimethyl-1,1-dioxido-3,6-dihydro-2H-1,4-thiazin-3-yl)-4-fluorophenyl)-3-chloro-5-fluoro-1,7-naphthyridin-8-amine] | IC50 ([2]; Aβ40, 24 h incubation): 15.1 nM
242000 | – | 4.54 | CC1(C)C(N)=N[C@](C)(c2cc(Nc3nccc4nc(OCC(F)F)cnc34)ccc2F)CS1(=O)=O [Example 444, N-(3-((3R)-5-amino-3,6,6-trimethyl-1,1-dioxido-3,6-dihydro-2H-1,4-thiazin-3-yl)-4-fluorophenyl)-2-(2,2-difluoroethoxy)pyrido[3,4-b]pyrazin-5-amine] | IC50 ([2]; average IC50, cell assay): 8.3 nM
105000 | – | 2.2 | Cc1cc(Cl)cnc1C(=O)Nc1cnc(F)c([C@]2(C)CS(=O)(=O)C3(CCC3)C(N)=N2)c1 [Example 359, N-(5-((7R)-9-amino-7-methyl-5,5-dioxido-5-thia-8-azaspiro[3.5]non-8-en-7-yl)-6-fluoro-3-pyridinyl)-5-chloro-3-methyl-2-pyridinecarboxamide] | IC50 ([2]; average IC50, HEK cell assay): 5.21 nM
> 14800 | – | 0.56 | CC1(C)C(N)=N[C@](CF)(c2cc(Nc3ncc(F)c4cc(C#N)cnc34)ccc2F)CS1(=O)=O [Example 157, (S)-8-((3-(5-amino-3-(fluoromethyl)-6,6-dimethyl-1,1-dioxido-3,6-dihydro-2H-1,4-thiazin-3-yl)-4-fluorophenyl)amino)-5-fluoro-1,7-naphthyridine-3-carbonitrile] | IC50 ([2]; average IC50, cell assay): 27.1 nM
812000 | – | – | COc1ccc(C(=O)Nc2ccc(F)c([C@]3(CF)CS(=O)(=O)C(C)(C)C(N)=N3)c2)nc1 [Example 457, N-(3-((3S)-5-amino-3-(fluoromethyl)-6,6-dimethyl-1,1-dioxido-3,6-dihydro-2H-1,4-thiazin-3-yl)-4-fluorophenyl)-5-methoxy-2-pyridinecarboxamide] | IC50 ([2]; average IC50, HEK cells): 12.9 nM; IC50 ([3]; average IC50): 0.65 nM
622000 | – | 44.5 | Cc1cc(OC2COC2)cnc1C(=O)Nc1ccc(F)c([C@]2(CF)CS(=O)(=O)C(C)(C)C(N)=N2)c1 [Example 150, (S)—N-(3-(5-amino-3-(fluoromethyl)-6,6-dimethyl-1,1-dioxido-3,6-dihydro-2H-1,4-thiazin-3-yl)-4-fluorophenyl)-3-methyl-5-(oxetan-3-yloxy)picolinamide] | IC50 ([2]; average IC50, cell assay): 528 nM
218000 | – | 566 | CC1(C)C(N)=N[C@](C)(c2cc(Sc3cc(C#N)ccn3)ccc2F)CS1(=O)=O [Example 440, 2-((3-((3R)-5-amino-3,6,6-trimethyl-1,1-dioxido-3,6-dihydro-2H-1,4-thiazin-3-yl)-4-fluorophenyl)sulfanyl)-4-pyridinecarbonitrile] | IC50 ([2]; average IC50, cell assay): 679 nM
> 400000 | – | 1.62 | C[C@]1(F)C(N)=N[C@](C)(c2cc(NC(=O)c3ccc(C(F)F)cn3)ccc2F)CS1(=O)=O [Example 319, N-(3-((3R,6R)-5-amino-6-fluoro-3,6-dimethyl-1,1-dioxido-3,6-dihydro-2H-1,4-thiazin-3-yl)-4-fluorophenyl)-5-(difluoromethyl)-2-pyridinecarboxamide] | IC50 ([2]; average IC50, HEK cell assay): 70 nM
9400 | – | 5.99 | Cc1cc(OC(F)F)cnc1C(=O)Nc1ccc(F)c([C@@]2(C)N=C(N)C(C)(C)S(=O)(=O)C23CC3)c1 [Example 341, N-(3-((8R)-6-amino-5,5,8-trimethyl-4,4-dioxido-4-thia-7-azaspiro[2.5]oct-6-en-8-yl)-4-fluorophenyl)-5-(difluoromethoxy)-3-methyl-2-pyridinecarboxamide] | IC50 ([2]; average IC50, HEK cell assay): 2.4 nM
194000 | 15200 | – | COc1ccc(C)cc1Oc1ccc(F)c([C@]2(C)CS(=O)(=O)C(C)(C)C(N)=N2)c1 [Example 101, (R)-5-amino-3-(2-fluoro-5-(2-methoxy-5-methylphenoxy)phenyl)-3,6,6-trimethyl-3,6-dihydro-2H-1,4-thiazine 1,1-dioxide] | IC50 ([2]; Aβ40, 24 h incubation): > 10000 nM
